Values belong to the molecule of their own block, whether it stands above or below them.
Key:
[1] = tested on: B16-OVA cells; test: T cell killing assay of B16-OVA target cells; assay type: cell-based, mouse; conditions: low (1:1) T cell to target ratio, 3 days co-culture
Description: CD8^+ T cells from spleen of OT-I mice were enriched using a mouse CD8^+ T cell isolation kit (Miltenyi) according to manufacturer's protocol. 6-well untreated plates were coated with anti-CD3 and anti-CD28 at 2×10^−3 mg mL^−1 for 2 h at 37° C. and washed 3× before 1×10^6 T cells per mL were seeded in complete growth media (RPMI) supplemented with murine IL-2 (Peprotech, 100 U mL-1) and murine IL-12p70 (Peprotech, 2.5×10−3 mg mL-1). After 24 h of activation, T cells were re-seeded at 1×10^6 cells per mL in fresh complete RPMI supplemented with murine IL-2 for 48 h on new untreated plates to allow T cell expansion. MACS-sorted reprogrammed mOrange^+ B16-OVA cells or IFN-γ treated cells were seeded with non-fluorescent B16-OVA (mOrange−) in equal numbers, 24 h before co-culture with T cells. Expanded T cells were added in ratios of 0:1, 1:1, 5:1, 10:1 T cell to target cell. […] For flow cytometry analysis, cells were resuspended and stained for viability (DAPI) and anti-CD3 and measured at indicated time points post co-culture with T cells.

[2] = tested on: human embryonic fibroblasts (HEF); test: cDC1 reprogramming efficiency of human embryonic fibroblasts, flow cytometry for CD45+HLA-DR+ cells at day 9; assay type: cell-based; conditions: HEF with Dox-inducible PIB
Description: HEFs, HDFs and Clec9a-tdTomato MEFs were seeded at a density of 40,000 cells per well and MSCs at a density of 50,000 cells per well on 0.1% gelatin coated 6-well plates. On the following day, cells were incubated overnight with either a ratio of 1:1 TetO-PIB and M2rtTA, SFFV-PIB-GFP or SFFV-GFP lentiviral particles in media supplemented with 8 μg/ml polybrene. Cells were transduced overnight twice in consecutive days and media replaced in between. After the second transduction, media was replaced by normal growth media (day 0). When using TetO-PIB, media was supplemented with Dox (1 μg/ml). Media was changed every 2-3 days for the duration of cultures. When stated, media was supplemented with LPS (100 ng/ml, Enzo), Poly I:C (25 μg/ml, InvivoGen) and R848 (3 μg/ml, InvivoGen) overnight. Cytokines were added at day 2 and kept for the duration of cultures; For reprogramming in xeno-free conditions, MSCs were cultured in X-Vivo 15 (Lonza) after transduction and media changed every 2-3 days for the duration of cultures.
For the analysis of surface marker expression, human and mouse cells were dissociated and incubated with antibodies diluted in PBS 5% FBS at 4° C. for 30 minutes in the presence of mouse or rat serum (1/100, GeneTex), for human and mouse cells respectively, to block unspecific binding. Cells were washed and resuspended in PBS 5% FBS and analyzed in BD FACSCanto II or BD LSRFortessa flow cytometers (BD Biosciences), unless stated otherwise. DAPI was used for dead cell exclusion. Flow cytometry data were analyzed using FlowJo software (FLOWJO, LLC, version 10.6.1). All flow cytometry analyses were performed in live single cell gates.
Coding regions of ID2, TXNIP, ZFP36, PLEK, SUB1, JUNB, CREM, KLF4, MXD1, LITAF, IRF7, FOS, NMI, TFEC, SP110, IRF5, STAT2, BATF, ZNF267, IRF1, RELB and BATF2 were individually cloned in the pFUW-TetO plasmid. […] Reprogramming efficiency was evaluated by flow cytometry in HEFs 9 days after transcription factor overexpression.
17 human hematopoietic cytokines including inflammatory mediators (Table 3) were individually added to the culture media 2 days after PIB induction in HEFs, and reprogramming efficiency was measured at day 9. Changes in reprogramming efficiency were analysed using both single cytokines and combinations of two or three cytokines.
The impact on reprogramming efficiency after a combination of cytokine treatment and SFFV-driven PIB induction was evaluated. The scPred system was used for integration with “natural” DCs. See previous Examples for experimental details.

[3] = tested on: human cancer cell lines; test: Effect of valproic acid on cDC1 reprogramming of human cancer cell lines; assay type: cell-based; conditions: VPA from day 1 to day 4, day 9
Description: (§1) Cancer cell lines were transduced with PIB-IRES-EGFP lentiviral particles or EGFP as control, and cultured in the presence or absence of VPA from reprogramming day 1 to day 4, and reprogramming efficiency was quantified by flow cytometry at reprogramming day 9 in live EGFP^+ cells according to the surface expression of CD45^+ and MHC-II or HLA-DR. Reprogrammed cells were then analysed as previously described.

[4] = tested on: LLC and B16 cells; test: Effect of valproic acid on reprogramming of mouse cancer cells; assay type: cell-based; conditions: for fold enhancement of CD45^+ MHC-II^+ tumour-APC generation: SFFV-PIB-eGFP; for fold enhancement of CD45^+ MHC-II^+ tumour-APC generation / CD45^+ MHC-II^+ tumour-APCs: day 9
Description: as §1

[5] = tested on: chromatin; test: ChIP-seq of PU.1, IRF8 and BATF3 in HDFs 48 h after induction; assay type: binding, human; conditions: for chromatin binding, number of peaks: factors co-expressed, HDFs, 48 h; for positions shared between the three factors as share of total peaks of the factor: factors expressed together
Description: TFs were delivered with a polycistronic lentiviral vector (pFUW-tetO-PIB) or individual vectors (pFUW-tetO-PU.1, pFUW-tetO-IRF8, or pFUW-tetO-BATF3) with pFUW-M2rtTA. ChIP was performed 48 hours after the addition of Dox.
Chromatin in cultured cells was fixed by adding 1/10 volume of freshly-prepared formaldehyde solution [11% Formaldehyde (Sigma), 0.1M NaCl, 1 mM EDTA and 50 mM HEPES] to each cell suspension in complete DMEM. Tubes were left 15 minutes at room temperature with agitation. Fixation was stopped by adding 1/20 volume of […] Glycine solution (Sigma). After 5 minutes incubation, cells were centrifuged at 800 g for 10 min at 4° C. Cell pellets were resuspended in 10 ml chilled PBS-Igepal, 100 μl PMSF were added to each tube and centrifuged at 800 g for 10 minutes at 4° C. Cell pellets were snap-frozen on dry ice and stored at −80° C. Active Motif (Carlsbad, CA) prepared chromatin, performed ChIP, generated libraries and sequenced libraries. Briefly, chromatin was isolated by adding lysis buffer, followed by disruption with a Dounce homogenizer. Lysates were sonicated and the DNA sheared to an average length of 300-500 bp (Active Motif's EpiShear probe sonicator). Genomic DNA (Input) was prepared by treating aliquots of chromatin with RNase, proteinase K and heat for de-crosslinking, followed by clean up using solid phase reversible immobilization (SPRI) beads (Beckman Coulter) and quantitation by Clariostar (BMG Labtech). Extrapolation to the original chromatin volume allowed determination of total chromatin yield. 30 μg of chromatin was pre-cleared with protein A/G agarose beads (Invitrogen). Immunoprecipitations were performed with 4 μg of antibodies against human PU.1, IRF8 and BATF3 (rabbit anti-human PU.1, rabbit anti-human IRF8 or sheep anti-human BATF3). […] To confirm ChIP enrichment, quantitative PCR (QPCR) reactions were carried out in triplicate on specific genomic regions using SYBR Green Supermix (Bio-Rad). […] After a final PCR amplification step, the resulting DNA libraries were quantified and sequenced on Illumina's NextSeq 500 (75 nt reads, single end).
ChIP-seq analysis was performed on the raw FASTQ files. […] For genome tracks, bigwig files were created from bam files with deeptools (https://deeptools.readthedocs.io/en/develop/) and explored using the UCSC Genome Browser. For Chromatin State Fold-Enrichment analysis, enrichment scores for genomic features, such as PU.1, IRF8 and BATF3 ChIP-seq peaks and histone marks were calculated using ChromHMM Overlap Enrichment (http://compbio.mit.edu/ChromHMM/). […] Enrichment scores were calculated as the ratio between the observed and the expected overlap for each feature and chromatin state based on their sizes and the size of the human genome. […]

chromatin binding, number of peaks [5]: 18,962 peaks
B1: IRF8: transcription factor of the interferon regulatory factor family, SEQ ID NO: 11 (protein, listed as Homo sapiens)
chain: MCDRNGGRRLRQWLIEQIDSSMYPGLIWENEEKSMFRIPWKHAGKQDYNQEVDASIFKAWAVFKGKFKEGDKAEPATWKTRLRCALNKSPDFEEVTDRSQLDISEPYKVYRIVPEEEQKCKLGVATAGCVNEVTEMECGRSEIDELIKEPSVDDYMGMIKRSPSPPEACRSQLLPDWWAQQPSTGVPLVTGYTTYDAHHSAFSQMVISFYYGGKLVGQATTTCPEGCRLSLSQPGLPGTKLYGPEGLELVRFPPADAIPSERQRQVTRKLFGHLERGVLLHSSRQGVFVKRLCQGRVFCSGNAVVCKGRPNKLERDEVVVFDTSQFFRELQQFYNSQGRLPDGRVVLCFGEEFPDMAPLRSKLILVQIEQLYVRQLAEEAGKSCGAGSVMQAPEEPPPDQVFRMFPDICASHQRSFFRENQQITV
modifications: Human IRF8 isoform 1 (protein sequence)
positions shared between the three factors as share of total peaks of the factor [5]: 28%

chromatin binding, number of peaks [5]: 11,505 peaks
B2: BATF3: nuclear basic leucine zipper transcription factor, SEQ ID NO: 10 (protein, listed as Homo sapiens)
chain: MSQGLPAAGSVLQRSVAAPGNQPQPQPQQQSPEDDDRKVRRREKNRVAAQRSRKQTQKADKLHEEYESLEQENTMLRREIGKLTEELKHLTEALKEHEKMCPLLLCPMNFVPVPPRPDPVAGCLPR
modifications: Human BATF3 (protein sequence)
positions shared between the three factors as share of total peaks of the factor [5]: 47%

Further lines, the molecule ahead of its results:

Molecule: IFN-γ: cytokine
target cells killed by T cells [1]: 12.31±7.1%
fold increase in reprogramming efficiency versus condition without cytokines [2]: 20 fold
CD45^+ HLA-DR^+ cell generation (hiDCs) ([2]; cytokine added 2 days after induction, 0.4%±0.2% without cytokines): 7.9%±2.2%

Molecule: CCCC(CCC)C(=O)O [VPA, valproic acid]
reprogramming efficiency in human cancer cells [3]: increased reprogramming efficiency in all tested lines
fold enhancement of CD45^+ MHC-II^+ tumour-APC generation ([4]; B16 cells): ~5 fold
CD45^+ MHC-II^+ tumour-APCs ([4]; B16 cells, 5.9±4.8% without VPA): 29.9±19.3%
MHC-I in transduced cells ([4]; LLC and B16 cells transduced with PIB): upregulate MHC-I
fold enhancement of CD45^+ MHC-II^+ tumour-APC generation ([4]; LLC cells): ~3 fold
CD45^+ MHC-II^+ tumour-APCs ([4]; LLC cells, 15.8±4.79% without VPA): 45.9±25.5%
antigen presentation function of tumour-APCs generated in the presence of VPA ([4]; LLC-OVA and B16-OVA cells, OT-I CD8^+ T cells): presented endogenous antigens to OT-I CD8^+ T cells
